Test results taken from BindingDB's records for doi:10.1016/s0960-894x(99)00298-x (Agrevo, 1999).

Experiment: Inhibition of Pisum sativum (pea) adenylate deaminase

For `O=P(O)(O)OC[C@H]1O[C@@H](c2n[nH]c3cncnc23)[C@H](O)[C@@H]1O`, which IC50 is on record?
Its IC50 is 100 nM.
